Measurements published in US9271978B2 (Zenith Epigenetics Corp., priority 2012, dated 2016).

Assays:
hIL-6 mRNA = experiment: Inhibition of hIL-6 mRNA transcription in U937 cells; assay type: cell-based, human; parameters: key: Active: Compounds with an IC50 value less than 30 μM were deemed to be active.; Not Active: Compounds with an IC50 value less than 30 μM were deemed to be active; conditions: LPS stimulation, active = IC50 <30 μM
Outline: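 Readout is one-step real-time PCR of hIL-6 mRNA, normalized to an internal control and given as fold induction versus control. Cells: PMA (60 ng/mL, 3 days)-differentiated U937 macrophages, compound added 1 h before 1 ug/mL LPS, harvested after 3 h at 37° C.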

[1] = target: T1, second bromodomain of Brd2 (BRD2(2)) (Homo sapiens, UniProt P25440); experiment: Inhibition of tetra-acetylated histone H4 binding to Brd2 bromodomain 2 (TR-FRET); parameters: key: Active: Compounds with an IC50 value less than 30 μM were deemed to be active.; Not Active: Compounds with an IC50 value less than 30 μM were deemed to be active; conditions: tetra-acetylated histone H4 peptide, active = IC50 <30 μM
T1 construct: made in house; host or cells: E. coli BL21 (DE3)
Outline: (§1)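 IC50 values come from dose-response curves of the 665 nm to 620 nm TR-FRET signal decrease, measured after 2 h at room temperature. Reactions contained 200 nM E. coli-expressed His-tagged bromodomain, 25-50 nM biotinylated tetra-acetylated H4 peptide, Eu-streptavidin plus XL665 anti-His antibody, with 30 mM HEPES pH 7.4, 320 mM KF and 0.2% DMSO.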

[2] = tested on: human AML MV-4-11 (CRL-9591) cells; experiment: Inhibition of cell proliferation in MV4-11 cells; assay type: cell-based; parameters: key: Active: Compounds with an IC50 value less than 30 μM were deemed to be active.; Not Active: Compounds with an IC50 value less than 30 μM were deemed to be active; conditions: human AML MV-4-11 cells, 72 h; active = IC50 <30 μM
Outline: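 IC50 values come from blank-corrected proliferation relative to DMSO controls, read as 490 nm absorbance 3–4 h after CellTiter Aqueous One addition. Before that, cells seeded at 5×10^4/well were exposed for 72 h (37° C, 5% CO2) to triplicate two-fold compound dilutions spanning 30–0.2 μM.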

[3] = target: T2, Brd4 bromodomain 1 (BRD4(1)) (Homo sapiens, UniProt O60885); experiment: Inhibition of tetra-acetylated histone H4 binding to Brd4 bromodomain 1 (TR-FRET); parameters: key: Active: Compounds with an IC50 value less than 30 μM were deemed to be active.; Not Active: Compounds with an IC50 value less than 30 μM were deemed to be active; conditions: tetra-acetylated histone H4 peptide, active = IC50 <30 μM
T2 construct: Illustrative results with the first bromodomain of Brd4; made in house; host or cells: E. coli BL21 (DE3)
Outline: as §1

c-myc = experiment: Inhibition of c-myc expression in MV4-11 cells (mRNA, real-time PCR); assay type: cell-based; parameters: key: Active: Compounds with an IC50 value less than 30 μM were deemed to be active.; Not Active: Compounds with an IC50 value less than 30 μM were deemed to be active; conditions: Human AML MV4-11 cells, 3 h incubation
Outline: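 Duplex RT-qPCR of c-myc against cyclophilin cDNA gave IC50 from a dose–response curve. Input was isolated mRNA from 2.5×10^4 MV4-11 cells after 3 h exposure at 37 °C to compound or 0.1% DMSO vehicle.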

ApoA-I mRNA = experiment: Up-regulation of hApoA-1 mRNA transcription in Huh7 cells; assay type: cell-based, human; parameters: key: Active: Compounds with an EC170 value less than 30 μM were deemed to be active; conditions: 48 h treatment, ApoA-I mRNA by real-time PCR, Active = EC170 less than 30 μM
Outline: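 Huh7 cells treated with compound for 48 h. ApoA-I mRNA was then quantified in captured mRNA by one-step real-time RT-PCR. Fold induction calculated from Ct values relative to the matching DMSO control; EC170 is the concentration for 170% of control expression.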

T1 sequence (P25440 344-453 limits assumed): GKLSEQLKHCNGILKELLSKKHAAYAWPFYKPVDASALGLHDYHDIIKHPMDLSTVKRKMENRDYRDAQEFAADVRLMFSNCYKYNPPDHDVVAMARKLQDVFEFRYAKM

Compound	IL-6 activity (IC50 <30 μM) (hIL-6 mRNA)	FRET activity (IC50 <30 μM) BRD2(2) [1]	Cell Proliferation activity (IC50 <30 μM) [2]	FRET activity (IC50 <30 μM) BRD4(1) [3]	c-myc activity (IC50 <30 μM) (c-myc)	ApoA-1 activity (EC170 <30 μM) (ApoA-I mRNA)
Cc1noc(C)c1-c1ccc(=O)n(C(C)c2ccccc2)n1 (stereo not drawn) [Example 19, 6-(3,5-Dimethylisoxazol-4-yl)-2-(1-phenylethyl)pyridazin-3(2H)-one]	Active	Active	Active	Active	Active	Active
COc1cc(-c2ccc(=O)n(Cc3ccccc3C#N)n2)cc(OC)c1OC [Example 118, 2-((6-Oxo-3-(3,4,5-trimethoxyphenyl)pyridazin-1(6H)-yl)methyl)benzonitrile]	Active	Active	Active	Active	Not Active	Active
Cc1noc(C)c1-c1ccc(=O)n(Cc2ccc(F)c(Cl)c2)c1 [Example 147, 1-(3-Chloro-4-fluorobenzyl)-5-(3,5-dimethylisoxazol-4-yl)pyridin-2(1H)-one]	Active	Active	Active	Active	Active	Active
Cc1noc(C)c1-c1ccc(=O)n(Cc2ccc(C(N)=O)cc2)c1 [Example 13, 4-((5-(3,5-Dimethylisoxazol-4-yl)-2-oxopyridin-1(2H)-yl)methyl)benzamide]	Active	Active	Not Active	Active	Not Active	Active
COc1cc(-c2ccc(=O)n(Cc3ccccc3)n2)ccc1O [Example 83, 2-Benzyl-6-(4-hydroxy-3-methoxyphenyl)pyridazin-3(2H)-one]	Active	Active	Active	Active	Not Active	Active
Cc1noc(C)c1-c1ccc(=O)n(Cc2ccccc2)n1 [Example 14, 2-Benzyl-6-(3,5-dimethylisoxazol-4-yl)pyridazin-3(2H)-one]	Active	Active	Active	Active	Not Active	Active
COc1cc(Nc2ccc(=O)n(Cc3ccccc3)n2)cc(OC)c1OC [Example 54, 2-Benzyl-6-((3,4,5-trimethoxyphenyl)amino)pyridazin-3(2H)-one]	Active	Active	Active	Active	Active	Active
Cc1noc(C)c1-c1ccc(=O)n([C@@H](C)c2ccccc2)n1 [Example 109, (S)-6-(3,5-Dimethylisoxazol-4-yl)-2-(1-phenylethyl)pyridazin-3(2H)-one]	Active	Active	Active	Active	Active	Active
Cc1noc(C)c1-c1ccc(=O)n(Cc2ccc3[nH]ncc3c2)c1 [Example 148, 1-((1H-Indazol-5-yl)methyl)-5-(3,5-dimethylisoxazol-4-yl)pyridin-2(1H)-one]	Active	Active	Active	Active	Active	Active
COc1cc(-c2ccc(=O)n(Cc3cccc(NC(C)=O)c3)n2)cc(OC)c1OC [Example 17, N-(3-((6-Oxo-3-(3,4,5-trimethoxyphenyl)pyridazin-1(6H)-yl)methyl)phenyl)acetamide]	Active	Active	Not Active	Active	Active	Active
Cc1noc(C)c1-c1ccc(=O)n(Cc2ccc(OC(F)(F)F)cc2)c1 [Example 5, 5-(3,5-Dimethylisoxazol-4-yl)-1-(4-(trifluoromethoxy)benzyl)pyridin-2(1H)-one]	Active	Active	Active	Active	Active	Active
Cc1noc(C)c1-c1ccc(=O)n(C(C)c2ccccc2)c1 (stereo not drawn) [Example 125, 5-(3,5-Dimethylisoxazol-4-yl)-1-(1-phenylethyl)pyridin-2(1H)-one]	Active	Active	Active	Active	Active	Active
COc1ccc(Nc2ccc(=O)n(Cc3ccccc3)n2)cc1OC [Example 60, 2-Benzyl-6-((3,4-dimethoxyphenyl)amino)pyridazin-3(2H)-one]	Active	Active	Not Active	Active	Not Active	Active
COc1cc(-c2ccc(=O)n(Cc3ccc(NC(C)=O)cc3)n2)cc(OC)c1OC [Example 82, N-(4-((6-Oxo-3-(3,4,5-trimethoxyphenyl)pyridazin-1(6H)-yl)methyl)phenyl)acetamide]	Active	Active	Not Active	Active	Not Active	Active
Cc1noc(C)c1-c1ccc(=O)n(CC2CCC2)c1 [Example 49, 1-(Cyclobutylmethyl)-5-(3,5-dimethylisoxazol-4-yl)pyridin-2(1H)-one]	Active	Active	Active	Active	Active	Active
CCC(c1ccccc1)n1cc(-c2c(C)noc2C)ccc1=O (stereo not drawn) [Example 43, 5-(3,5-Dimethylisoxazol-4-yl)-1-(1-phenylpropyl)pyridin-2(1H)-one]	Active	Active	Active	Active	Active	Active
COc1cc(-c2ccc(=O)n(Cc3ccccc3C#N)c2)cc(OC)c1OC [Example 53, 2-((2-Oxo-5-(3,4,5-trimethoxyphenyl)pyridin-1(2H)-yl)methyl)benzonitrile]	Active	Active	Active	Active	Not Active	Active
